This test addresses T1, human islet amyloid polypeptide (hIAPP, amylin) (Homo sapiens, UniProt P10997).
T1 sequence (P10997 34-70 limits assumed): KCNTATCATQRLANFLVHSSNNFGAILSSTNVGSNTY
The test is described as follows: ITC. The test is classed as binding.

In the case of `O=C(O[C@@H]1Cc2c(O)cc(O)cc2O[C@@H]1c1cc(O)c(O)c(O)c1)c1cc(O)c(O)c(O)c1` [EGCG], the Kd is roughly 1100 nM.

Broadly, the Kd is a measure of binding affinity in units of concentration. Higher therefore signals lower affinity.

Values taken from article PMC6450719 (Biochimica et biophysica acta. Proteins and proteomics, 2018).
